Key:
[1] = Distribution in organs of rats killed with CO2 (absence of general circulation); conditions: 5 hrs after 0.3 mmol/kg diethylaminoethyl acetylsalicylate HCl salt on back of killed rats;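 further: tissue concentration in nmol/g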
Experimental: 0.3 mmol/kg of diethylaminoethyl acetylsalicylate HCl salt (10% in pure water) was applied to the back of rats (10 cm^2) which were killed with CO2. The rats were shaken for 5 hrs, then the HPCs and parent drugs in organs of rats were determined.

[2] = tested on: Human breast cancer cells (BCAP-37); experiment: Human breast cancer xenograft in nude mice
Experimental: Human breast cancer cells (BCAP-37, 2-3 mm^3 of tumor tissue was used in each mouse) were subcutaneously xenografted into nude mice (BALB, 12 groups, 7 mice each group). […] 50 μl of 5% (equal to 2.5 mg of the HPCs) diethylaminoethyl acetylsalicylate.HCl (P-1, in pure water); 1-piperidinepropyl 2[(2,6-dichlorophenyl)amino]benzene acetate.HCl (P-2, in water), 1-pyrrolidinepropyl 2-(3-benzoylphenyl) propionate.HCl (P-3, in water), 4-piperidinemethyl 2-(3-phenoxyphenyl)propionate.HCl (P-4, in water), 3-piperidinemethyl 2-(ρ-isobutylphenyl) propionate.HCl (P-5, in water), diethylaminoethyl 1-(p-chlorobenzoyl)-5-methoxy-2-methylindole 3-acetate.HCl (P-11, in water), 2-(4-morpholinyl)ethyl (Z)-5-fluoro-2-methyl-1-[(4-methylsulfinyl)phenylmethylene]-1H-indene-3-acetate.

[3] = tested on: human myeloma cell line implanted into mice; experiment: Survival of mice with multiple myeloma (Example 110, Study B); format: in vivo; conditions: n=5
Experimental: Study B: For evaluation of antitumor activity, a human myeloma cell line derived from the ascites of a patient with multiple myeloma was implanted into mice. The experiment was carried out on 17 groups of mice. Control group (A, orally), chlorambucil (group B1: 1 mg/kg, orally, group B2, 3 mg/kg, orally, group B3:1 mg/kg, transdermally, and group B4: 3 mg/kg, transdermally), melphalan (group C1: 1 mg/kg, orally, group C2, 3 mg/kg, orally, group C3:1 mg/kg, transdermally, and group C4: 3 mg/kg, transdermally), N,N-diethylaminoethyl 4-[bis(2-chloroethyl)amino]benzenebutyrate.HBr (the HPC of chlorambucil (group D1: 1 mg/kg, orally, group D2, 3 mg/kg, orally, group D3:1 mg/kg, transdermally, and group D4: 3 mg/kg, transdermally), and 4-[bis(2-chloroethyl)amino]-N-acetyl-L-phenylalanine N,N-diethylaminoethyl ester hydrobromide (the HPC of melphalan) (group E1: 1 mg/kg, orally, group E2, 3 mg/kg, orally, group E3:1 mg/kg, transdermally, and group E4: 3 mg/kg, transdermally).

[4] = tested on: human myeloma cell line implanted into mice; experiment: Survival and weight loss of myeloma mice (Example 111); format: in vivo; conditions: for Weight Loss: day 21; for Life Elongation Rate / None Disease Rate / Survival Period: n=7
Description: A human myeloma cell line derived from the ascites of a patient with multiple myeloma was implanted into mice. The mice was divided into 11 groups: control group (A, orally), melphalan (B1 and B2, orally), chlorambucil (C1 and C2, orally), N,N-diethylaminoethyl 4-[bis(2-chloroethyl)amino]benzenebutyrate.HBr (D1 and D2, transdermally), 4-[bis(2-chloroethyl)amino]-N-acetyl-L-phenylalanine N,N-diethylaminoethyl ester hydrobromide (E1 and E2, transdermally in 5% aqueous solution), and diethylaminoethyl 4-[bis(2-methylsulfonylethyl)amino]benzenebutyrate.HCl (F1 and F2, transdermally in 5% aqueous solution). The body weight loss of mice was determined on day 21.

[5] = 50 μl of 5% topically every 8 hours
[6] = 1.5 mg/kg per day, transdermally
[7] = 50 μl of 5% topically every 8 hours, in g (unit assumed)

CCN(CC)CCOc1ccccc1C(=O)O [diethylaminoethyl salicylic acid]
concentration in Leg muscle [1]: 6.2 ± 3.2 nmol/g | concentration in kidney [1]: 3.1 ± 1.6 nmol/g | concentration in liver [1]: 1.5 ± 1.2 nmol/g | concentration in pancreas [1]: 3.1 ± 1.1 nmol/g | concentration in stomach [1]: 3.2 ± 1.3 nmol/g

CCN(CC)CCOC(=O)C(C)c1ccc2c(c1)C(=O)Cc1cc(C)ccc1O2.Cl (stereo not drawn) [P-37, diethylaminoethyl 2-(8-methyl-10,11-dihydro-11-oxodibenz(b,f)oxepin-2-yl)propionate.HCl]
tumor Size at day 42 [2, 5]: 270 ± 70 mm^3 | Weight of mice at day 42 ([2]; in vivo): 23 ± 3

Br.CCN(CC)CCOC(=O)CCCc1ccc(N(CCCl)CCCl)cc1 [N,N-diethylaminoethyl 4-[bis(2-chloroethyl)amino]benzenebutyrate.HBr]
Life Elongation Rate ([3]; 1 mg/kg per day, orally): 158% | Survival Period ([3]; 1 mg/kg per day, orally): 71.7 ± 3.3 days | Life Elongation Rate ([3]; 1 mg/kg per day, transdermally): 188% | Survival Period ([3]; 1 mg/kg per day, transdermally): 85.7 ± 4.4 days | Life Elongation Rate ([3]; 3 mg/kg per day, orally): 194% | Survival Period ([3]; 3 mg/kg per day, orally): 88.5 ± 3.2 days | Life Elongation Rate ([3]; 3 mg/kg per day, transdermally): 201% | Survival Period ([3]; 3 mg/kg per day, transdermally): 91.5 ± 4.7 days | Weight Loss [4, 6]: 7% | Life Elongation Rate [4, 6]: 282% | None Disease Rate [4, 6]: 4/7 | Survival Period [4, 6]: 122.5 ± 7.3 days | Weight Loss ([4]; 3 mg/kg per day, transdermally): 10% | Life Elongation Rate ([4]; 3 mg/kg per day, transdermally): 269% | None Disease Rate ([4]; 3 mg/kg per day, transdermally): 4/7 | Survival Period ([4]; 3 mg/kg per day, transdermally): 117.2 ± 6.1 days

O=C(O)c1ccccc1O [salicylic acid]
concentration in Leg muscle [1]: 41.4 ± 11.2 nmol/g | concentration in kidney [1]: 21.2 ± 7.6 nmol/g | concentration in liver [1]: 12.2 ± 6.1 nmol/g | concentration in pancreas [1]: 14.1 ± 1.2 nmol/g | concentration in stomach [1]: 25.1 ± 2.4 nmol/g

CN(C)CCCC(=O)OC1=C(C(=O)Nc2ccccn2)N(C)S(=O)(=O)c2ccccc21.Cl [P-51, 4-N,N-dimethylaminobutyryloxy-2-methyl-N-2-pyridinyl-2H,1,2-benzothiazine-3-carboxamide 1,1-dioxide.HCl]
tumor Size at day 42 [2, 5]: 390 ± 55 mm^3 | Weight of mice at day 42 ([2]; in vivo): 23 ± 2

Br.CCN(CC)CCOC(=O)[C@H](Cc1ccc(N(CCCl)CCCl)cc1)NC(C)=O [4-[bis(2-chloroethyl)amino]-N-acetyl-L-phenylalanine N,N-diethylaminoethyl ester hydrobromide]
Life Elongation Rate ([3]; 1 mg/kg per day, orally): 151% | Survival Period ([3]; 1 mg/kg per day, orally): 68.7 ± 5.1 days | Life Elongation Rate ([3]; 1 mg/kg per day, transdermally): 190% | Survival Period ([3]; 1 mg/kg per day, transdermally): 86.7 ± 4.5 days | Life Elongation Rate ([3]; 3 mg/kg per day, orally): 187% | Survival Period ([3]; 3 mg/kg per day, orally): 85.2 ± 4.3 days | Life Elongation Rate ([3]; 3 mg/kg per day, transdermally): 192% | Survival Period ([3]; 3 mg/kg per day, transdermally): 87.5 ± 4.2 days | Weight Loss [4, 6]: 5% | Life Elongation Rate [4, 6]: 272% | None Disease Rate [4, 6]: 4/7 | Survival Period [4, 6]: 118.5 ± 7.6 days | Weight Loss ([4]; 3 mg/kg per day, transdermally): 9% | Life Elongation Rate ([4]; 3 mg/kg per day, transdermally): 265% | None Disease Rate ([4]; 3 mg/kg per day, transdermally): 3/7 | Survival Period ([4]; 3 mg/kg per day, transdermally): 115.2 ± 6.8 days

Cl.O=C(OCCCN1CCCC1)c1ccccc1Nc1cccc(C(F)(F)F)c1 [P-48]
tumor Size at day 42 [2, 5]: 280 ± 50 mm^3 | Weight of mice at day 42 [2, 7]: 22 ± 3

CC1=C(CC(=O)OCCN2CCOCC2)c2cc(F)ccc2/C1=C\c1ccc([S+](C)[O-])cc1.Cl (stereo not drawn) [P-12, 2-(4-morpholinyl)ethyl (Z)-5-fluoro-2-methyl-1-[(4-methylsulfinyl)phenylmethylene]-1H-indene-3-acetate. HCl]
tumor Size at day 42 [2, 5]: 240 ± 60 mm^3 | Weight of mice at day 42 ([2]; in vivo): 23 ± 3

CCN(CC)CCOC(=O)CCCc1ccc(N(CCS(C)(=O)=O)CCS(C)(=O)=O)cc1.Cl [diethylaminoethyl 4-[bis(2-methylsulfonylethyl)amino]benzenebutyrate.HCl]
Weight Loss [4, 6]: 7% | Life Elongation Rate [4, 6]: 259% | None Disease Rate [4, 6]: 4/7 | Survival Period [4, 6]: 112.5 ± 8.7 days | Weight Loss ([4]; 3 mg/kg per day, transdermally): 11% | Life Elongation Rate ([4]; 3 mg/kg per day, transdermally): 256% | None Disease Rate ([4]; 3 mg/kg per day, transdermally): 3/7 | Survival Period ([4]; 3 mg/kg per day, transdermally): 111.2 ± 5.9 days

CCN(CC)CCOC(=O)Cc1ccccc1Oc1ccc(Cl)cc1Cl.Cl [P-19, diethylaminoethyl 2-(2,4-dichlorophenoxy)benzeneacetate.HCl]
tumor Size at day 42 [2, 5]: 260 ± 55 mm^3 | Weight of mice at day 42 ([2]; in vivo): 22 ± 2

N[C@@H](Cc1ccc(N(CCCl)CCCl)cc1)C(=O)O [melphalan, reference compound]
Life Elongation Rate ([3]; 1 mg/kg per day, orally): 106% | Survival Period ([3]; 1 mg/kg per day, orally): 48.1 ± 5.3 days | Life Elongation Rate ([3]; 1 mg/kg per day, transdermally): 98% | Survival Period ([3]; 1 mg/kg per day, transdermally): 44.7 ± 3.6 days | Life Elongation Rate ([3]; 3 mg/kg per day, orally): 155% | Survival Period ([3]; 3 mg/kg per day, orally): 70.5 ± 3.2 days | Life Elongation Rate ([3]; 3 mg/kg per day, transdermally): 100% | Survival Period ([3]; 3 mg/kg per day, transdermally): 45.6 ± 3.6 days | Weight Loss ([4]; 1.5 mg/kg per day, orally): 10% | Life Elongation Rate ([4]; 1.5 mg/kg per day, orally): 121% | None Disease Rate ([4]; 1.5 mg/kg per day, orally): 0/7 | Survival Period ([4]; 1.5 mg/kg per day, orally): 52.7 ± 4.3 days | Weight Loss ([4]; 3 mg/kg per day, orally): 20% | Life Elongation Rate ([4]; 3 mg/kg per day, orally): 192% | None Disease Rate ([4]; 3 mg/kg per day, orally): 2/7 | Survival Period ([4]; 3 mg/kg per day, orally): 83.5 ± 5.8 days

CCN(CC)CCOC(=O)Cc1c(C)n(C(=O)c2ccc(Cl)cc2)c2ccc(OC)cc12.Cl [P-11, diethylaminoethyl 1-(p-chlorobenzoyl)-5-methoxy-2-methylindole 3-acetate.HCl]
tumor Size at day 42 [2, 5]: 230 ± 105 mm^3 | Weight of mice at day 42 [2, 7]: 23 ± 2
